What all share (format): cell-based
The test system of test [1] is Caco-2 human colorectal carcinoma. The test is described as follows: Proliferation assay (crystal violet), Caco-2. As to conditions: CACO-2 cells, read-out: Inhibition of CACO-2 cell proliferation.
For test [2], the system named is DU 145, hormone-independent human prostate carcinoma cells. The test is described as follows: Proliferation assay (crystal violet), DU 145. As to conditions: DU145 cells, read-out: Inhibition of DU145 cell proliferation.
For test [3], the system named is HeLa-MaTu-ADR, multidrug-resistant human cervical carcinoma cells. The test is described as follows: Proliferation assay (crystal violet), HeLa-MaTu-ADR. As to conditions: read-out: Inhibition of HeLa/MaTu/ADR cell proliferation. As for the experimental part:
(§1) Cultivated tumour cells (NCI-H460, human non-small cell lung carcinoma cells, ATCC HTB-177; DU 145, hormone-independent human prostate carcinoma cells, ATCC HTB-81; HeLa-MaTu, human cervical carcinoma cells, EPO-GmbH, Berlin; HeLa-MaTu-ADR, multidrug-resistant human cervical carcinoma cells, EPO-GmbH, Berlin; HeLa human cervical tumour cells, ATCC CCL-2; Caco-2 human colorectal carcinoma, ATCC HTB-37; B16F10 mouse melanoma cells, ATCC CRL-6475) were plated at a density of 5000 cells/well (DU145, HeLa-MaTu-ADR), 3000 cells/well (NCI-H460, HeLa-MaTu, HeLa), 1500 cells/well (Caco-2), or 1000 cells/well (B16F10) in a 96-well multititer plate in 200 μL of their respective growth medium supplemented 10% fetal calf serum. After 24 hours, the cells of one plate (zero-point plate) were stained with crystal violet (see below), while the medium of the other plates was replaced by fresh culture medium (200 μl), to which the test substances were added in various concentrations (0 μM, as well as in the range of 0.001-10 μM; the final concentration of the solvent dimethyl sulfoxide was 0.5%). The cells were incubated for 4 days in the presence of test substances. Cell proliferation was determined by staining the cells with crystal violet: the cells were fixed by adding 20 μl/measuring point of an 11% glutaric aldehyde solution for 15 minutes at room temperature. After three washing cycles of the fixed cells with water, the plates were dried at room temperature. The cells were stained by adding 100 μl/measuring point of a 0.1% crystal violet solution (pH 3.0). After three washing cycles of the stained cells with water, the plates were dried at room temperature. The dye was dissolved by adding 100 μl/measuring point of a 10% acetic acid solution. The extinction was determined by photometry at a wavelength of 595 nm. The change of cell number, in percent, was calculated by normalization of the measured values to the extinction values of the zero-point plate (=0%) and the extinction of the untreated (0 μm) cells (=100%). The IC50 values were determined by means of a 4 parameter fit.

The subject of test [4] is B16F10 mouse melanoma cells. The test can be described thus: Proliferation assay (crystal violet), B16F10. As to conditions: B16-F10, read-out: Inhibition of B16F10 cell proliferation. As for the experimental part:
as §1

In test [5] the test system is NCI-H460, human non-small cell lung carcinoma cells. The test can be described thus: Proliferation assay (crystal violet), NCI-H460. As to conditions: read-out: Inhibition of H460 cell proliferation (activity range). As for the experimental part:
as §1

For `CS(=O)(=O)Cc1cccc(Nc2ncnc(-c3ccccc3OCc3cccc(Cl)c3)n2)c1` [Example 28, 4-{2-[(3-Chlorobenzyl)oxy]phenyl}-N-{3-[(methylsulfonyl)methyl]phenyl}-1,3,5-triazin-2-amine], the IC50 in test [1] came out at 320 nM; in test [2], 420 nM; in test [3] it was 350 nM; in test [4], 390 nM; in test [5], 370 nM.

As for `CS(=O)(=O)Cc1cccc(Nc2ncnc(-c3cccc4c3OCCO4)n2)c1` [Example 18, 4-(2,3-Dihydro-1,4-benzodioxin-5-yl)-N-{3-[(methylsulfonyl)methyl]phenyl}-1,3,5-triazin-2-amine], the IC50 in test [1] turned out to be 690 nM; in test [2] it was 530 nM; in test [3] it was 400 nM; in test [4] it was 640 nM; in test [5], 730 nM.

As to `CCCCOc1cc(F)ccc1-c1ncnc(Nc2cccc(CS(C)(=O)=O)c2)n1` [Example 44, 4-(2-Butoxy-4-fluorophenyl)-N-{3-[(methylsulfonyl)-methyl]phenyl}-1,3,5-triazin-2-amine], the IC50 in test [1] amounted to 1000 nM; in test [2], 520 nM; in test [3], 320 nM; in test [4] it was 570 nM; in test [5], 440 nM.

In the case of `CS(=O)(=O)Cc1cccc(Nc2ncnc(-c3ccc(F)cc3OCC3CC3)n2)c1` [Example 55, 4-[2-(Cyclopropylmethoxy)-4-fluorophenyl]-N-{3-[(methylsulfonyl)methyl]phenyl}-1,3,5-triazin-2-amine], the IC50 in test [1] is 400 nM; in test [2] it was 570 nM; in test [3], 320 nM; in test [4], 960 nM; in test [5], 490 nM.

`Cc1cccc(COc2cc(F)ccc2-c2ncnc(Nc3cccc(CS(C)(=O)=O)c3)n2)c1` [Example 83, 4-{4-Fluoro-2-[(3-methylbenzyl)oxy]phenyl}-N-{3-[(methylsulfonyl)-methyl]phenyl}-1,3,5-triazin-2-amine]: the IC50 worked out at 740 nM in test [1]; 380 nM in test [2]; 350 nM in test [3]; 440 nM in test [4]; 380 nM in test [5].

For the compound `CS(=O)(=O)Cc1cccc(Nc2ncnc(-c3ccc(F)cc3OCc3ccc(C#N)cc3)n2)c1` [Example 90, 4-({5-Fluoro-2-[4-({3-[(methylsulfonyl)methyl]phenyl}amino)-1,3,5-triazin-2-yl]phenoxy}methyl)-benzonitrile], the IC50 came to 310 nM in test [1]; 280 nM in test [2]; 330 nM in test [3]; 320 nM in test [4]; 60 nM in test [5].
